According to ChEMBL document CHEMBL2413072, “Synthesis and in vitro anticancer studies of novel C-2 arylidene congeners of lantadenes” (2013):

Experiments:
Format in all cases: functional
HCT-15 [1] = assay: Growth inhibition of human HCT15 cells by sulforhodamine B assay
NCI-H522 [2] = assay: Growth inhibition of human NCI-H522 cells by sulforhodamine B assay
NCI-H226 = assay: Growth inhibition of human NCI-H226 cells by sulforhodamine B assay
SR [3] = assay: Growth inhibition of human SR cells by sulforhodamine B assay
SK-MEL-28 [4] = assay: Growth inhibition of human SK-MEL-28 cells assessed as cell growth at 10^-8 M by sulforhodamine B assay; conditions: read-out: Activity
Malme-3M = assay: Growth inhibition of human MALME-3M cells assessed as cell growth at 10^-8 M by sulforhodamine B assay; conditions: read-out: Activity
U-251 [5] = assay: Growth inhibition of human U251 cells assessed as cell growth at 10^-8 M by sulforhodamine B assay; conditions: read-out: Activity
SNB-19 = assay: Growth inhibition of human SNB19 cells assessed as cell growth at 10^-8 M by sulforhodamine B assay; conditions: read-out: Activity
SW-620 = assay: Growth inhibition of human SW620 cells assessed as cell growth at 10^-8 M by sulforhodamine B assay; conditions: read-out: Activity
SR [6] = assay: Growth inhibition of human SR cells assessed as cell growth at 10^-8 M by sulforhodamine B assay; conditions: read-out: Activity
T47D = assay: Growth inhibition of human T47D cells by sulforhodamine B assay
SK-MEL-28 [7] = assay: Growth inhibition of human SK-MEL-28 cells by sulforhodamine B assay
MDA-MB-435 = assay: Growth inhibition of human MDA-MB-435 cells by sulforhodamine B assay
TK-10 = assay: Growth inhibition of human TK10 cells assessed as cell growth at 10^-4 M by sulforhodamine B assay; conditions: read-out: Activity
SN12C [8] = assay: Growth inhibition of human SN12C cells assessed as cell growth at 10^-4 M by sulforhodamine B assay; conditions: read-out: Activity
OVCAR-3 = assay: Growth inhibition of human OVCAR3 cells assessed as cell growth at 10^-4 M by sulforhodamine B assay; conditions: read-out: Activity
SK-MEL-5 = assay: Growth inhibition of human SK-MEL-5 cells assessed as cell growth at 10^-4 M by sulforhodamine B assay; conditions: read-out: Activity
SK-MEL-28 [9] = assay: Growth inhibition of human SK-MEL-28 cells assessed as cell growth at 10^-4 M by sulforhodamine B assay; conditions: read-out: Activity
U-251 [10] = assay: Growth inhibition of human U251 cells assessed as cell growth at 10^-4 M by sulforhodamine B assay; conditions: read-out: Activity
HT-29 [11] = assay: Growth inhibition of human HT-29 cells assessed as cell growth at 10^-4 M by sulforhodamine B assay; conditions: read-out: Activity
RPMI-8226 = assay: Growth inhibition of human RPMI8226 cells assessed as cell growth at 10^-4 M by sulforhodamine B assay; conditions: read-out: Activity
HL-60(TB) = assay: Growth inhibition of human HL-60(TB) cells assessed as cell growth at 10^-4 M by sulforhodamine B assay; conditions: read-out: Activity
BT-549 [12] = assay: Growth inhibition of human BT549 cells assessed as cell growth at 10^-6 M by sulforhodamine B assay; conditions: read-out: Activity
SN12C [13] = assay: Growth inhibition of human SN12C cells assessed as cell growth at 10^-6 M by sulforhodamine B assay; conditions: read-out: Activity
HCT-15 [14] = assay: Growth inhibition of human HCT15 cells assessed as cell growth at 10^-6 M by sulforhodamine B assay; conditions: read-out: Activity
HCT-116 = assay: Growth inhibition of human HCT116 cells assessed as cell growth at 10^-6 M by sulforhodamine B assay; conditions: read-out: Activity
[15] = Growth inhibition of human HCC2998 cells assessed as cell growth at 10^-6 M by sulforhodamine B assay; conditions: HCC 2998, read-out: Activity
NCI-H522 [16] = assay: Growth inhibition of human NCI-H522 cells assessed as cell growth at 10^-6 M by sulforhodamine B assay; conditions: read-out: Activity
MOLT-4 = assay: Growth inhibition of human MOLT4 cells assessed as cell growth at 10^-6 M by sulforhodamine B assay; conditions: read-out: Activity
SK-OV-3 = assay: Growth inhibition of human SKOV3 cells assessed as cell growth at 10^-7 M by sulforhodamine B assay; conditions: read-out: Activity
OVCAR-4 = assay: Growth inhibition of human OVCAR4 cells assessed as cell growth at 10^-7 M by sulforhodamine B assay; conditions: read-out: Activity
SF-295 = assay: Growth inhibition of human SF295 cells assessed as cell growth at 10^-7 M by sulforhodamine B assay; conditions: read-out: Activity
HT-29 [17] = assay: Growth inhibition of human HT-29 cells assessed as cell growth at 10^-7 M by sulforhodamine B assay; conditions: read-out: Activity
HOP-92 = assay: Growth inhibition of human HOP92 cells assessed as cell growth at 10^-7 M by sulforhodamine B assay; conditions: read-out: Activity
MDA-MB-468 = assay: Growth inhibition of human MDA-MB-468 cells assessed as cell growth at 10^-8 M by sulforhodamine B assay; conditions: read-out: Activity
BT-549 [18] = assay: Growth inhibition of human BT549 cells assessed as cell growth at 10^-8 M by sulforhodamine B assay; conditions: read-out: Activity
[19] = Growth inhibition of human Hs 578T cells assessed as cell growth at 10^-8 M by sulforhodamine B assay; conditions: read-out: Activity
MCF7 = assay: Growth inhibition of human MCF7 cells assessed as cell growth at 10^-8 M by sulforhodamine B assay; conditions: read-out: Activity
RXF 393 = assay: Growth inhibition of human RXF393 cells assessed as cell growth at 10^-8 M by sulforhodamine B assay; conditions: read-out: Activity
OVCAR-8 = assay: Growth inhibition of human OVCAR8 cells assessed as cell growth at 10^-8 M by sulforhodamine B assay; conditions: read-out: Activity
OVCAR-5 = assay: Growth inhibition of human OVCAR5 cells assessed as cell growth at 10^-8 M by sulforhodamine B assay; conditions: read-out: Activity
[20] = read-out: LC50 (the source's name)
[21] = read-out: pLC50 (the source's name) (converted)

CC(C)=CC(=O)O[C@@H]1CC(C)(C)C[C@H]2C3=CC[C@@H]4[C@@]5(C)CCC(=O)C(C)(C)[C@@H]5CC[C@@]4(C)[C@]3(C)CC[C@@]12C(=O)O
GI50 (HCT-15 [1]; read-out: GI50): 1.29 µM | LC50 (50% lethal concentration) (HCT-15 [1]; read-out: LC50): > 100 µM | TGI (HCT-15 [1]; read-out: TGI): 15.6 µM | GI50 (HCT-15 [1]; read-out: pGI50 (converted)): 1.29 µM | LC50 (50% lethal concentration) (HCT-15 [1]; read-out: pLC50 (converted)): > 100 µM | TGI (HCT-15 [1]; read-out: pTGI (converted)): 15.5 µM | GI50 (NCI-H522 [2]; read-out: GI50): 3.14 µM | CC50 (NCI-H522 [2]; [20]): > 100 µM | TGI (NCI-H522 [2]; read-out: TGI): 29.4 µM | GI50 (NCI-H522 [2]; read-out: pGI50 (converted)): 3.16 µM | CC50 (NCI-H522 [2]; [21]): > 100 µM | TGI (NCI-H522 [2]; read-out: pTGI (converted)): 29.5 µM | GI50 (NCI-H226; read-out: GI50): 5.68 µM | LC50 (NCI-H226; read-out: LC50): > 100 µM | TGI (NCI-H226; read-out: TGI): > 100 µM | GI50 (NCI-H226; read-out: pGI50 (converted)): 5.62 µM | LC50 (NCI-H226; read-out: pLC50 (converted)): > 100 µM | TGI (NCI-H226; read-out: pTGI (converted)): > 100 µM | GI50 (SR [3]; read-out: GI50): 3.75 µM | CC50 (SR [3]; [20]): > 100 µM | TGI (SR [3]; read-out: TGI): 33.8 µM | GI50 (SR [3]; read-out: pGI50 (converted)): 3.72 µM | CC50 (SR [3]; [21]): > 100 µM | TGI (SR [3]; read-out: pTGI (converted)): 33.9 µM | growth at 0.01 µM (SK-MEL-28 [4]): 108% | growth at 0.01 µM (Malme-3M): 94% | growth at 0.01 µM (U-251 [5]): 92% | growth at 0.01 µM (SNB-19): 98% | growth at 0.01 µM (SW-620): 100% | growth at 0.01 µM (SR [6]): 109% | GI50 (T47D; read-out: GI50): 5.08 µM | CC50 (T47D; [20]): > 100 µM | TGI (T47D; read-out: TGI): > 100 µM | GI50 (T47D; read-out: pGI50 (converted)): 5.13 µM | CC50 (T47D; [21]): > 100 µM | TGI (T47D; read-out: pTGI (converted)): > 100 µM | GI50 (SK-MEL-28 [7]; read-out: GI50): 11.6 µM | CC50 (SK-MEL-28 [7]; [20]): > 100 µM | TGI (SK-MEL-28 [7]; read-out: TGI): > 100 µM | GI50 (SK-MEL-28 [7]; read-out: pGI50 (converted)): 11.7 µM | CC50 (SK-MEL-28 [7]; [21]): > 100 µM | TGI (SK-MEL-28 [7]; read-out: pTGI (converted)): > 100 µM | GI50 (MDA-MB-435; read-out: GI50): 6.22 µM | CC50 (MDA-MB-435; [20]): > 100 µM | TGI (MDA-MB-435; read-out: TGI): > 100 µM | GI50 (MDA-MB-435; read-out: pGI50 (converted)): 6.17 µM | CC50 (MDA-MB-435; [21]): > 100 µM | TGI (MDA-MB-435; read-out: pTGI (converted)): > 100 µM | growth at 100 µM (TK-10): -18% | growth at 100 µM (SN12C [8]): -38% | growth at 100 µM (OVCAR-3): -73% | growth at 100 µM (SK-MEL-5): -78% | growth at 100 µM (SK-MEL-28 [9]): 6% | growth at 100 µM (U-251 [10]): -49% | growth at 100 µM (HT-29 [11]): -27% | growth at 100 µM (RPMI-8226): -19% | growth at 100 µM (HL-60(TB)): -38% | growth at 1 µM (BT-549 [12]): 90% | growth at 1 µM (SN12C [13]): 80% | growth at 1 µM (HCT-15 [14]): 55% | growth at 1 µM (HCT-116): 70% | growth at 1 µM [15]: 88% | growth at 1 µM (NCI-H522 [16]): 82% | growth at 1 µM (MOLT-4): 85% | growth at 0.1 µM (SK-OV-3): 106% | growth at 0.1 µM (OVCAR-4): 97% | growth at 0.1 µM (SF-295): 83% | growth at 0.1 µM (HT-29 [17]): 95% | growth at 0.1 µM (HOP-92): 90% | growth at 0.01 µM (MDA-MB-468): 92% | growth at 0.01 µM (BT-549 [18]): 114% | growth at 0.01 µM [19]: 96% | growth at 0.01 µM (MCF7): 87% | growth at 0.01 µM (RXF 393): 97% | growth at 0.01 µM (OVCAR-8): 95% | growth at 0.01 µM (OVCAR-5): 94%
